Laboratory results published in patent US20240043439A1, “COMPOUNDS AS C5AR INHIBITORS” (Kira Pharmaceuticals (Suzhou) Ltd., priority 2020, published 2024).
pIC50: −log10 of the molar value.

Target: C5aR (Homo sapiens (Human), UniProt P21730)
Experiment: Calcium mobilization (U937/C5aR or HEK293/C5aR cells, FLIPR)
Assay type: cell-based
Conditions: agonist human C5a at EC80, FLIPR
Description: U937/C5aR cells or HEK293/C5aR cells were washed by PBS and suspended in growth media at the density of 1×10^6 cells/ml. […] to the 384-well plate and culture for overnight. Transfer 250 nl compound solution to the cell plate using Echo, incubate for 60 min. Cells were added with Fluo-4 Direct™ dye and incubate for 50 min at 37° C. 5% CO2 and 10 m at room temperature. Place the cell plate into […] (Molecular Devices). Transfer 10 μl of 5-fold EC80 concentrations of agonist human C5a to the cell plates.

C5aR, sequence (P21730 whole entry): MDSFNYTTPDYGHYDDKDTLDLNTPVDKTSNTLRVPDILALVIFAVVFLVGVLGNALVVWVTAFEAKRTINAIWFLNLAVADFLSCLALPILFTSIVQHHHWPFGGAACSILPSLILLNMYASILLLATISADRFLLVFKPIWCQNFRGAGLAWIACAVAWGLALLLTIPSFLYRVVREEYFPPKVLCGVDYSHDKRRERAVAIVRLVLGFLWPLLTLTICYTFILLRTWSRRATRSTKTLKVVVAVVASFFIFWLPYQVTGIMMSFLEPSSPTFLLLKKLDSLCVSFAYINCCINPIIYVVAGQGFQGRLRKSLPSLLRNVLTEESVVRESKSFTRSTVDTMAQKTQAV

Compound	pIC50
Cc1cccc(F)c1C(=O)N1[C@@H]2COC[C@@H]2CC(C(=O)Nc2cccnc2)[C@@H]1c1ccc(NC2CCOCC2)cc1 (mixture of isomers) [Compound 128, cis-1-(2-fluoro-6-methylbenzoyl)-N-(pyridin-3-yl)-2-(4-((tetrahydro-2H-pyran-4-yl)amino)phenyl)octahydrofuro[3,4-b]pyridine-3-carboxamide]	5.00 to 5.70
Cc1cccc(F)c1C(=O)N1C2CCC[C@@H]2C[C@H](C(=O)Nc2cnc(-n3nccn3)c(Cl)c2)[C@@H]1c1ccc(NC2CCCC2)cc1 (relative stereo) [Compound 75, cis-N-(5-chloro-6-(2H-1,2,3-triazol-2-yl)pyridin-3-yl)-2-(4-(cyclopentylamino)phenyl)-1-(2-fluoro-6-methylbenzoyl)octahydro-1H-cyclopenta[b]pyridine-3-carboxamide]	< 5.00
Cc1ccc(NC(=O)[C@H]2C[C@H]3CCC[C@H]3N(C(=O)c3cnn(C)c3)C2c2ccc(NC3CCCC3)cc2)cc1C(F)(F)F (relative stereo) [Compound 112, cis-2-(4-(cyclopentylamino)phenyl)-1-(1-methyl-1H-pyrazole-4-carbonyl)-N-(4-methyl-3-(trifluoromethyl)phenyl)octahydro-1H-cyclopenta[b]pyridine-3-carboxamide]	< 5.00
Cc1cccc(F)c1C(=O)N1C(c2ccc(NC3CCN(C)CC3)cc2)C(C(=O)Nc2ccc3c(cnn3C)c2)C[C@@H]2CCC[C@@H]21 (relative stereo) [Compound 117, cis-1-(2-fluoro-6-methylbenzoyl)-N-(1-methyl-1H-indazol-5-yl)-2-(4-((1-methylpiperidin-4-yl)amino)phenyl)octahydro-1H-cyclopenta[b]pyridine-3-carboxamide]	5.00 to 5.70
Cc1cccc(F)c1C(=O)N1C(c2ccc(NC3CCOCC3)cc2)C(C(=O)Nc2cnn(C)c2)C[C@@H]2COC[C@@H]21 (relative stereo) [Compound 127, cis-1-(2-fluoro-6-methylbenzoyl)-N-(1-methyl-1H-pyrazol-4-yl)-2-(4-((tetrahydro-2H-pyran-4-yl)amino)phenyl)octahydrofuro[3,4-b]pyridine-3-carboxamide]	5.00 to 5.70
Cc1ccc(NC(=O)C2C[C@@H]3CN(CC(F)(F)F)C[C@@H]3N(C(=O)c3c(C)cccc3F)C2c2ccc(NC3CCCC3)cc2)cc1C(F)(F)F (relative stereo) [Compound 206, cis-2-(4-(cyclopentylamino)phenyl)-1-(2-fluoro-6-methylbenzoyl)-N-(4-methyl-3-(trifluoromethyl)phenyl)-6-(2,2,2-trifluoroethyl)octahydro-1H-pyrrolo[3,4-b]pyridine-3-carboxamide]	5.00 to 5.70
Cc1ccc(NC(=O)C2CC3CCCC3N(C(=O)c3c(C)cccc3F)C2c2ccc(NC3CCCC3)cc2)cc1C(F)(F)F (stereo in doubt) [Compound 48, (2S,3R,4aS,7aS)-2-(4-(cyclopentylamino)phenyl)-1-(2-fluoro-6-methylbenzoyl)-N-(4-methyl-3-(trifluoromethyl)phenyl)octahydro-1H-cyclopenta[b]pyridine-3-carboxamide]	5.00 to 5.70
Cc1ccc(NC(=O)[C@@H]2CCCN(c3ccncn3)[C@H]2c2ccc(NC3CCCC3)cc2)cc1C(F)(F)F [Compound 3, (2R,3R)-2-(4-(cyclopentylamino)phenyl)-N-(4-methyl-3-(trifluoromethyl)phenyl)-1-(pyrimidin-4-yl)piperidine-3-carboxamide]	5.00 to 5.70
Cc1cc(C)cc(S(=O)(=O)N2CCC[C@H](C(=O)Nc3ccc(C)c(C(F)(F)F)c3)[C@@H]2c2ccc(NC3CCCC3)cc2)c1 [Compound 12, (2R,3S)-2-(4-(cyclopentylamino)phenyl)-1-((3,5-dimethylphenyl)sulfonyl)-N-(4-methyl-3-(trifluoromethyl)phenyl)piperidine-3-carboxamide]	< 5.00
COC(=O)c1cccc(C)c1S(=O)(=O)N1CCC[C@H](C(=O)Nc2ccc(C)c(C(F)(F)F)c2)[C@@H]1c1ccc(NC2CCCC2)cc1 [Compound 21, methyl 2-(((2R,3S)-2-(4-(cyclopentylamino)phenyl)-3-((4-methyl-3-(trifluoromethyl)phenyl)carbamoyl)piperidin-1-yl)sulfonyl)-3-methylbenzoate]	< 5.00
COC(=O)c1ccccc1S(=O)(=O)N1CCC[C@H](C(=O)Nc2ccc(C)c(C(F)(F)F)c2)[C@@H]1c1ccc(NC2CCCC2)cc1 [Compound 31, methyl 2-(((2R,3S)-2-(4-(cyclopentylamino)phenyl)-3-((4-methyl-3-(trifluoromethyl)phenyl)carbamoyl)piperidin-1-yl)sulfonyl)benzoate]	5.00 to 5.70
Cc1ccc(NC(=O)[C@@H]2CCC3CCc4ccccc4C(=O)N3[C@@H]2c2ccc(NC3CCCC3)cc2)cc1C(F)(F)F (stereo partly drawn) [Compound 45, (3R,4S)-4-(4-(cyclopentylamino)phenyl)-N-(4-methyl-3-(trifluoromethyl)phenyl)-6-oxo-1,2,3,4,6,11,12,12a-octahydrobenzo[e]pyrido[1,2-a]azepine-3-carboxamide]	5.00 to 5.70
Cc1cccc(F)c1C(=O)N1[C@@H]2CCC[C@@H]2C[C@H](C(=O)NC2CCN(C)CC2)[C@@H]1c1ccc(NC2CCCC2)cc1 [Compound 53, (2R,3S,4aR,7aR)-2-(4-(cyclopentylamino)phenyl)-1-(2-fluoro-6-methylbenzoyl)-N-(1-methylpiperidin-4-yl)octahydro-1H-cyclopenta[b]pyridine-3-carboxamide]	5.00 to 5.70
Cc1ccc(NC(=O)[C@H]2CCCN(Cc3c(C)cccc3F)[C@H]2c2ccc(NC3CCCC3)cc2)cc1C(F)(F)F [Compound 159, (2R,3S)-2-(4-(cyclopentylamino)phenyl)-1-(2-fluoro-6-methylbenzyl)-N-(4-methyl-3-(trifluoromethyl)phenyl)piperidine-3-carboxamide]	5.00 to 5.70
Cc1ccc(NC[C@H]2CCCN(C(=O)c3c(C)cccc3F)[C@H]2c2ccc(NC3CCCC3)cc2)cc1C(F)(F)F [Compound 160, ((2R,3R)-2-(4-(cyclopentylamino)phenyl)-3-(((4-methyl-3-(trifluoromethyl)phenyl)amino)methyl)piperidin-1-yl)(2-fluoro-6-methylphenyl)methanone]	5.00 to 5.70
Cc1ccc(NC(=O)[C@H]2CCCN(c3ncnc4ccccc34)[C@H]2c2ccc(N(C(=O)OCc3ccccc3)C3CCCC3)cc2)cc1C(F)(F)F [Compound 163, benzyl cyclopentyl(4-((2R,3S)-3-((4-methyl-3-(trifluoromethyl)phenyl)carbamoyl)-1-(quinazolin-4-yl)piperidin-2-yl)phenyl)carbamate]	5.00 to 5.70
Cc1ccc(NC(=O)[C@H]2CCCN(c3nccc4nccnc34)[C@H]2c2ccc(N(C(=O)OCc3ccccc3)C3CCCC3)cc2)cc1C(F)(F)F [Compound 165, benzyl cyclopentyl(4-((2R,3S)-3-((4-methyl-3-(trifluoromethyl)phenyl)carbamoyl)-1-(pyrido[3,4-b]pyrazin-5-yl)piperidin-2-yl)phenyl)carbamate]	5.00 to 5.70
Cc1ccc(NC(=O)[C@H]2CCCN(c3ncnc4cnccc34)[C@H]2c2ccc(N(C(=O)OCc3ccccc3)C3CCCC3)cc2)cc1C(F)(F)F [Compound 167, benzyl cyclopentyl(4-((2R,3S)-3-((4-methyl-3-(trifluoromethyl)phenyl)carbamoyl)-1-(pyrido[3,4-d]pyrimidin-4-yl)piperidin-2-yl)phenyl)carbamate]	5.00 to 5.70
Cc1ccc(NC(=O)[C@H]2CCCN[C@H]2c2ccc(N(c3nccc4scnc34)C3CCCC3)cc2)cc1C(F)(F)F [Compound 169, (2R,3S)-2-(4-(cyclopentyl(thiazolo[4,5-c]pyridin-4-yl)amino)phenyl)-N-(4-methyl-3-(trifluoromethyl)phenyl)piperidine-3-carboxamide]	5.00 to 5.70
Cc1ccc(NC(=O)[C@@H]2CCCN[C@H]2c2ccc(N(c3nccc4cccnc34)C3CCCC3)cc2)cc1C(F)(F)F [Compound 171, (2R,3R)-2-(4-(cyclopentyl(1,7-naphthyridin-8-yl)amino)phenyl)-N-(4-methyl-3-(trifluoromethyl)phenyl)piperidine-3-carboxamide]	5.00 to 5.70
Cc1ccc(NC(=O)[C@H]2CCCN[C@H]2c2ccc(N(c3nccc4nccnc34)C3CCCC3)cc2)cc1C(F)(F)F [Compound 172, (2R,3S)-2-(4-(cyclopentyl(pyrido[3,4-b]pyrazin-5-yl)amino)phenyl)-N-(4-methyl-3-(trifluoromethyl)phenyl)piperidine-3-carboxamide]	5.00 to 5.70
Cc1ccc(NC(=O)[C@H]2CCCN[C@H]2c2ccc(N(c3nccc4ccsc34)C3CCCC3)cc2)cc1C(F)(F)F [Compound 173, (2R,3S)-2-(4-(cyclopentyl(thieno[2,3-c]pyridin-7-yl)amino)phenyl)-N-(4-methyl-3-(trifluoromethyl)phenyl)piperidine-3-carboxamide]	5.00 to 5.70
Cc1ccc(NC(=O)[C@@H]2CCCN[C@H]2c2ccc(N(c3ncnc4cccnc34)C3CCCC3)cc2)cc1C(F)(F)F [Compound 174, (2R,3R)-2-(4-(cyclopentyl(pyrido[3,2-d]pyrimidin-4-yl)amino)phenyl)-N-(4-methyl-3-(trifluoromethyl)phenyl)piperidine-3-carboxamide]	5.00 to 5.70
Cc1ccc(NC(=O)[C@H]2CCCN[C@H]2c2ccc(N(c3nccc4ccccc34)C3CCCC3)cc2)cc1C(F)(F)F [Compound 175, (2R,3S)-2-(4-(cyclopentyl(isoquinolin-1-yl)amino)phenyl)-N-(4-methyl-3-(trifluoromethyl)phenyl)piperidine-3-carboxamide]	5.00 to 5.70
Cc1ccc(NC(=O)[C@H]2CCCN[C@H]2c2ccc(N(c3ncnc4cccnc34)C3CCCC3)cc2)cc1C(F)(F)F [Compound 176, (2R,3S)-2-(4-(cyclopentyl(pyrido[3,2-d]pyrimidin-4-yl)amino)phenyl)-N-(4-methyl-3-(trifluoromethyl)phenyl)piperidine-3-carboxamide]	5.00 to 5.70
